Earlier results on four compounds are cited in US20260345588A1, “COMBINED AGENTS WITH SYNERGISTIC EFFECTS AGAINST GLIOMAS” (Eberhard Karls Universitaet Tuebingen Medizinische Fakultaet, priority 2023, published 2026).

Where only a bound is given, the exact number is not on record here.

One series deals with Pim3. To be noted: Pim1 versus Pim3.
Another series concerns Pim2. The following applies: Pim1 versus Pim2.
The test system of a further series is Pim1. The following applies: ATP competitive inhibitor; cell-free assay.
A further series relates to Fit3. To be noted: in words.
A further series deals with haspin. To be noted: in words.
The conditions of series [1]: use of tideglusib.
The test system of a further series is Alzheimer's disease. To be noted: phase-IIa clinical trial; treatment discontinued.
In another series the test system is EHMT1. The following applies: EHMT1 peptide.
A further series has as its system EHMT2. The following applies: EHMT2 peptide.

Broadly, the IC50 is the concentration that inhibits the measured activity by half. Take `CN1CCC(CNc2ccc3ncc(-c4cccc(OC(F)(F)F)c4)n3n2)CC1` [SGI-1776]: the “fold selective versus Pim3” value with Pim3 is […]. In the series with Pim2, the “fold selective versus Pim2” value is given as […]. Further, the half-inhibitory concentration (IC50) with Pim1 was […]. Further, the “potency to Fit3” value in the series on Fit3 is “potent”. For the same compound, the potency to haspin result in the series on haspin is recorded as “potent”.
For `Cn1nnc2c(C(N)=O)ncn2c1=O` [Temozolomide], the injection-site reactions entry (people receiving the solution for infusion) was “injection-site reactions, such as pain, irritation, itching, warmth, swelling and redness, as well as bruising”. Further, for the setting “people treated with temozolomide”, the side effects entry was “nausea (feeling sick), vomiting, constipation, loss of appetite, alopecia (hair loss), headache, fatigue (tired-ness), convulsions (fits), rash, neutropenia or lymphopenia (low white-blood-cell counts), and thrombocytopenia (low blood platelet counts)”.
For the compound `O=c1sn(-c2cccc3ccccc23)c(=O)n1Cc1ccccc1` [Tideglusib], in series [1], the adverse reactions entry was “mild-moderate adverse reactions, which included transient increases in serum creatine kinase, ALT—or gGT—diarrhea, nausea, cough, fatigue, and headache”. Besides, in the series with Alzheimer's disease, the “clinical efficacy in Alzheimer's disease” value is given as “lack of efficacy”.
Take `CNCc1cnn(-c2cc(Nc3nc(C)cc(NC)n3)ccc2OC)c1` [EHMT 2-IN-1]: the IC50 with EHMT1, with cellular EHMT2 and with EHMT2 was < 100 nM each time.
